Test results reported in US7785577B2, “Peptides or peptidic conjugate derivatives of MSH and the use thereof for cosmetically fighting against canities” (Institut Europeen de Biologie Cellulaiare, priority 2004, dated 2010).
Non-standard residues stand in square brackets, D forms with d. Residues, ends and D or L forms follow the SMILES beside them. *: point of attachment. Palmitoyl = CCCCCCCCCCCCCCCC(=O)*; Nle = CCCC[C@H](N)C(=O)O

Target: T1, melanocortin-1 receptor MClr (Homo sapiens, UniProt Q01726)
T1 construct: The cells used to test MClr were human melanocytes; endogenous in cells; host or cells: human melanocytes
Assay: Melanogenesis stimulation test: quantification of second messenger cAMP
Type: cell-based
From the text: Test: Study of the quantification of a second messenger: cAMP
When an agonist binds to this receptor, it leads to activation of a molecule, adenylate cyclase, which produces cAMP. Quantifying cAMP makes it possible to evaluate the affinity of a ligand for its receptor.
Protocol: The cells used to test MClr were human melanocytes.
EC50 is the ligand concentration giving 50% of maximum stimulation.

T1 sequence (Q01726 whole entry): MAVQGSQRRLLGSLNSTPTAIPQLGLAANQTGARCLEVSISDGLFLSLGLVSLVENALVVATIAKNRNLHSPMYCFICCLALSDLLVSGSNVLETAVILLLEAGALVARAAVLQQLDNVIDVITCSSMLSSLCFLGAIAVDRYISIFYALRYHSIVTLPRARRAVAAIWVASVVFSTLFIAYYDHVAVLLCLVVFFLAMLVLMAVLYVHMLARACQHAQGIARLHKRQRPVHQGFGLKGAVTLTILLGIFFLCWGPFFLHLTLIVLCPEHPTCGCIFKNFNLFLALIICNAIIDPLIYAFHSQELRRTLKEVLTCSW

Row | SMILES | EC50 [nM]
1 | CCCCCCCCCCCCCCCC(=O)N[C@@H](CCCC)C(=O)N[C@@H](C)C(=O)N[C@@H](Cc1c[nH]cn1)C(=O)N[C@H](Cc1ccccc1)C(=O)N[C@@H](CCCNC(=N)N)C(=O)N[C@@H](Cc1c[nH]c2ccccc12)C(N)=O [Conjugate no. 13, Palm-Nle-Ala-His-DPhe-Arg-Trp-NH2] (Palmitoyl-[Nle]AH[dF]RW-NH2) | 1.6
2 | CCCC[C@H](NC(C)=O)C(=O)N[C@@H](C)C(=O)N[C@@H](CCCNC(=N)N)C(=O)N[C@H](Cc1ccccc1)C(=O)N[C@@H](CCCNC(=N)N)C(=O)N[C@@H](Cc1c[nH]c2ccccc12)C(N)=O [Conjugate no. 2, Ac-Nle-Ala-Arg-DPhe-Arg-Trp-NH2] (Ac-[Nle]AR[dF]RW-NH2) | 0.6
